These results are taken from publication PMC11643450, “Pimozide and Adipic Acid: A New Multicomponent Crystalline Entity for Improved Pharmaceutical Behavior” (Molecules, 2024).

Data set [1] can be described thus: Contact angle (wettability) of powder samples with drops of the different fluids. The class given is physicochemical. As for the experimental part: In total, 120 mg of each sample was placed in a cylindrical ring, and the surface was smoothed with a scraper. The Contact Angle Meter DMe-211Plus (NTG Nuova Tecnogalenica, Cernusco, Italy) was used to record the images of a drop (9 μL) of the different fluids once placed in contact with the surface of the samples at progressive times. The contact angles were measured using the software supplied with the apparatus (three replicates).

A short description of data set [2]: In vitro dissolution test, USP apparatus 2 (paddle). The format is physicochemical. As for the experimental part:
For the dissolution tests, the USP apparatus 2, paddle (Erweka DT-D6, Erweka GmbH, Dusseldorf, Germany) was used at 37.0 ± 0.5 °C and 50 rpm (three replicates). In 900 mL of 0.01 N hydrochloric acid pH = 2, which is the medium requested by the USP monograph (Pimozide Tablets, Official Monograph. In The United States Pharmacopeia (USP43-NF38); United States Pharmacopeia Convention, Inc.: Rockville, MD, USA, 2023; p. 3548), it can simulate a fasted stomach environment and, in other two fluids, simulates the following: pH 4.5 phosphate buffer (a condition that simulates the gastric environment in fed conditions) and deionized water (neutral conditions). The dissolution media were prepared according to the reagent and buffer solutions section of the USP [33]. […] The drug concentration was determined using UV detection (Lambda 25, Perkin-Elmer, Monza, Italy), and the data were analyzed using the software provided (Winlab V6 software, Perkin-Elmer, Monza, Italy).

On the set-up of data set [3]: method as in doi:10.1016/j.molliq.2015.12.054. The note with it: cited from earlier work.
Data set [4] in a line: Solubility at equilibrium, shake flask method with spectrophotometric determination. The conditions noted are these: thermodynamic from solid, 21 °C. The class given is physicochemical. As for the experimental part: The samples were sieved through a 230-mesh grid, 63 μm (Endecotts, London, UK).
An excess sample is placed in the flasks containing the three different fluids and left under stirring. At time intervals, a portion of the solution was taken and filtered on a 0.22 μm filter (Millipore Merck, Darmstadt, Germany). The drug concentration was determined using UV detection (Lambda 25, Perkin-Elmer, Monza, Italy). The test was repeated until equilibrium was reached.

Values after ≈ are worked out from the molar mass of the structure shown.

As usually defined, the solubility is the concentration that dissolves in the medium under given conditions. The low end stands for a poorly soluble substance, the high end for a readily soluble substance. Regarding `O=c1[nH]c2ccccc2n1C1CCN(CCCC(c2ccc(F)cc2)c2ccc(F)cc2)CC1` [PMZ, 1-(1-(4,4-bis(p-fluorophenyl)butyl)-4-piperidyl)-2-benzimidazoline], the Contact angle in data set [1] (deionized water) is ~120 θ; in data set [1] (pH 2, after about 3 min) it was 4 θ; in data set [1] (pH 2, initial), 120 θ; in data set [1] (pH 4.5), “about 130 θ”. Besides, the Passage into solution entry in data set [2] (deionized water (neutral conditions), compared with pH 4.5, 4 mg PMZ) is reported as “further depressed”. Also, in data set [2] (pH 4.5 phosphate buffer (fed stomach), 4 mg PMZ), the “Fraction of the dose passed into solution in the first hour” value was “just a very tiny fraction of the dose”. Moreover, in data set [3], the BCS class result is “class II”. Also, the solubility in data set [4] (aqueous buffer, pH 4.5 (phosphate buffer)) was 6.4 ± 0.2 µg/mL (≈ 13.9 µM); in data set [4] (simulated gastric fluid, pH 2.0 (0.01N hydrochloric acid)), 175 ± 1.8 µg/mL (≈ 380 µM); in data set [4] (H2O (deionized water)), 1.4 ± 0.3 µg/mL (≈ 3.03 µM).
In the case of [PMZH]2[adipate] [PMZ:AAD 0.66:0.33ev], the Contact angle entry was “less than 100 θ” in data set [1] (deionized water) and “less than 90 θ” in data set [1] (pH 4.5).
As to `O=C(O)CCCCC(=O)O` [AAD, adipic acid], in data set [1] (pH 2), the Wettability result was “poorly wettable”.
